From patent publication US20240270751A1, “Pyrazolopyridinone Compounds” (BeiGene Ltd., priority 2021, published 2024)

How the values were obtained:
[1] = target: DGKζ (Homo sapiens (Human), UniProt Q13574); assay: Biochemical DGK IC50 assay, DGKζ ADP-Glo assay; conditions: 0.5 nM enzyme, 140 μM ATP, 80 μM DAG; read-out: DGKζ ADP-Glo assay IC50
In short: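 Full-length human DGKζ, His-TEV tagged and purified from baculovirus-infected Sf9 cells, assayed by ADP-Glo with DAG/PS lipid micelle substrate prepared in 25 mM HEPES pH 7.0 with octyl glucoside. Final compound concentrations spanned 1.55–10000 nM or 23.3–150000 nM.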

[2] = target: DGKα (Homo sapiens (Human), UniProt P23743); assay: Biochemical DGK IC50 assay, DGKα ADP-Glo assay; conditions: 7.5 nM enzyme, 140 μM ATP, 80 μM DAG
In short: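 ADP-Glo read-out with full-length DGKα on DAG/PS lipid micelle substrate in 25 mM HEPES pH 7.0, 0.5 mM EDTA, 160 mM octyl β-D-glucopyranoside. Compound final concentrations spanned 1.55˜10000 nM or 23.3˜150000 nM.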

Sequence of DGKζ (Q13574 other isoform, or with tags, fused parts or gaps): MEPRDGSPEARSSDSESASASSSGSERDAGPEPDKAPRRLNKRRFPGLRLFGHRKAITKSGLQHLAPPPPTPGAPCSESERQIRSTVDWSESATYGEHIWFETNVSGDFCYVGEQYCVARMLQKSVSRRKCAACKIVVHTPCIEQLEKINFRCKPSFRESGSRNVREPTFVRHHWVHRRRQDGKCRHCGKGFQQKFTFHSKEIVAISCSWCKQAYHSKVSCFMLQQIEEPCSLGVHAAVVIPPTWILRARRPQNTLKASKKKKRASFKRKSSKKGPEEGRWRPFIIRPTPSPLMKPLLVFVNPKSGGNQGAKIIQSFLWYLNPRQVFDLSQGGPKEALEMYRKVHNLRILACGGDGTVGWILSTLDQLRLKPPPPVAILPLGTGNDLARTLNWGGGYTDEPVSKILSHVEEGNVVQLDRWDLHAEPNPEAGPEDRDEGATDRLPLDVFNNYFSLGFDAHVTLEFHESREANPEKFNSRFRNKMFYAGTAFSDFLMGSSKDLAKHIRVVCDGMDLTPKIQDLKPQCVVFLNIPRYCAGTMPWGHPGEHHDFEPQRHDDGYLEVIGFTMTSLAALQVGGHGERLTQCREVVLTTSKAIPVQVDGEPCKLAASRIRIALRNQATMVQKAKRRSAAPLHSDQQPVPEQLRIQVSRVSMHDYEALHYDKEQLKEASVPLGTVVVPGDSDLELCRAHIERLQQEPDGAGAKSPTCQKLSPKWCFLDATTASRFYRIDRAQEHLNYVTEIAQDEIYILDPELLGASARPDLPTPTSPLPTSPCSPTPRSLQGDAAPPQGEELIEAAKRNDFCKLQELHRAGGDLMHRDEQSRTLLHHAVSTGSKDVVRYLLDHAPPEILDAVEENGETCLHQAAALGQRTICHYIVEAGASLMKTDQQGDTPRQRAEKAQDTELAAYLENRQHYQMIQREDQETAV
Sequence of DGKα (P23743 whole entry): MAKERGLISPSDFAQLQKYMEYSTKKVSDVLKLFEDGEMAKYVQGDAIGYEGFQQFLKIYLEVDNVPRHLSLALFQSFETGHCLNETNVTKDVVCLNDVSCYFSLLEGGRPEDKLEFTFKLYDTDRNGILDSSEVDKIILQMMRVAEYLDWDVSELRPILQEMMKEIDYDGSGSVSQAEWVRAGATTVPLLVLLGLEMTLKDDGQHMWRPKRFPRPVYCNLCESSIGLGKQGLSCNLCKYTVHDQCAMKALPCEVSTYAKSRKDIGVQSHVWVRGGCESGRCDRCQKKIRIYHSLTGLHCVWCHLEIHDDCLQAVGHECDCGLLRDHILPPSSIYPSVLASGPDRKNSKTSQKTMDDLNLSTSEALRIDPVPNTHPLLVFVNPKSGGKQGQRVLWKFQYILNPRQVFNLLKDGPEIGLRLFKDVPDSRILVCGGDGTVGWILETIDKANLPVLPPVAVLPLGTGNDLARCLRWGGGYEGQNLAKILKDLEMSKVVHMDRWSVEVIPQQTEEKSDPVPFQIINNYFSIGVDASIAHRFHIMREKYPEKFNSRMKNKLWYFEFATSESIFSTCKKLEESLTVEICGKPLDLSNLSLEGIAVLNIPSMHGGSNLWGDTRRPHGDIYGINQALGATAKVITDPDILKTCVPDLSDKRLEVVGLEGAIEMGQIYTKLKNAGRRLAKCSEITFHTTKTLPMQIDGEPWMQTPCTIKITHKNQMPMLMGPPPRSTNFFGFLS

SMILES | IC50 [1] | IC50 [2]
CCS(=O)(=O)N1CC(CC#N)(n2cc3c(n2)c(N2C[C@@H](C)N(C(C)c4ccc5nccnc5c4)C[C@@H]2C)cc(=O)n3C)C1 (stereo partly drawn) [Compound A19, 2-(3-(7-((2S,5R)-2,5-dimethyl-4-(1-(quinoxalin-6-yl)ethyl)piperazin-1-yl)-4-methyl-5-oxo-4,5-dihydro-2H-pyrazolo[4,3-b]pyridin-2-yl)-1-(ethylsulfonyl)azetidin-3-yl)acetonitrile] | 24000 nM | > 150000 nM
CC(c1ccc2nccnc2c1)N1C[C@H](C)N(c2cc(=O)n(C)c3cn(C(CC#N)C4CCCC4)nc23)C[C@H]1C (stereo partly drawn) [Compound A20, 3-cyclopentyl-3-(7-((2S,5R)-2,5-dimethyl-4-(1-(quinoxalin-6-yl)ethyl)piperazin-1-yl)-4-methyl-5-oxo-4,5-dihydro-2H-pyrazolo[4,3-b]pyridin-2-yl)propanenitrile] | 39000 nM | > 150000 nM
C#CCn1cc2c(n1)c(N1C[C@@H](C)N(C(C)c3ccc4nccnc4c3)C[C@@H]1C)cc(=O)n2C (some centres unmarked) [Compound A21] | 310 nM | 5300 nM
CC#CCn1cc2c(n1)c(N1C[C@@H](C)N([C@H](C)c3ccc4nccnc4c3)C[C@@H]1C)cc(=O)n2C [Compound A22a, 2-(but-2-yn-1-yl)-7-((2S,5R)-2,5-dimethyl-4-((R)-1-(quinoxalin-6-yl)ethyl)piperazin-1-yl)-4-methyl-2,4-dihydro-5H-pyrazolo[4,3-b]pyridin-5-one] | 13000 nM | 1100 nM
CC#CCn1cc2c(n1)c(N1C[C@@H](C)N([C@@H](C)c3ccc4nccnc4c3)C[C@@H]1C)cc(=O)n2C [Compound A22b, 2-(but-2-yn-1-yl)-7-((2S,5R)-2,5-dimethyl-4-((S)-1-(quinoxalin-6-yl)ethyl)piperazin-1-yl)-4-methyl-2,4-dihydro-5H-pyrazolo[4,3-b]pyridin-5-one] | 72 nM | 190 nM
CC#CCn1cc2c(n1)c(N1C[C@@H](CC)N(C(C)c3ccc4nccnc4c3)C[C@@H]1CC)cc(=O)n2C (stereo partly drawn) [Compound A23, 2-(but-2-yn-1-yl)-7-((2S,5R)-2,5-diethyl-4-(1-(quinoxalin-6-yl)ethyl)piperazin-1-yl)-4-methyl-2,4-dihydro-5H-pyrazolo[4,3-b]pyridin-5-one] | 57 nM | 120 nM
C=C(C)n1cc2c(n1)c(N1C[C@@H](C)N(C(C)c3ccc4nccnc4c3)C[C@@H]1C)cc(=O)n2C (stereo partly drawn) [Compound A24, 7-((2S,5R)-2,5-dimethyl-4-(1-(quinoxalin-6-yl)ethyl)piperazin-1-yl)-4-methyl-2-(prop-1-en-2-yl)-2,4-dihydro-5H-pyrazolo[4,3-b]pyridin-5-one] | 4300 nM | 150 nM
C=C(C)n1cc2c(n1)c(N1C[C@@H](CC)N(C(C)c3ccc4nccnc4c3)C[C@@H]1CC)cc(=O)n2C (stereo partly drawn) [Compound A25, 7-((2S,5R)-2,5-diethyl-4-(1-(quinoxalin-6-yl)ethyl)piperazin-1-yl)-4-methyl-2-(prop-1-en-2-yl)-2,4-dihydro-5H-pyrazolo[4,3-b]pyridin-5-one] | 510 nM | 54 nM
C=C(C)n1cc2c(n1)c(N1C[C@@H](C)N(Cc3ccc(OC(F)(F)F)cc3)C[C@@H]1C)cc(=O)n2C [Compound A26, 7-((2S,5R)-2,5-dimethyl-4-(4-(trifluoromethoxy)benzyl)piperazin-1-yl)-4-methyl-2-(prop-1-en-2-yl)-2,4-dihydro-5H-pyrazolo[4,3-b]pyridin-5-one] | 98000 nM | 4.3 nM
C=C(C)n1cc2c(n1)c(N1C[C@@H](CC)N(Cc3ccc(OC(F)(F)F)cc3)C[C@@H]1CC)cc(=O)n2C [Compound A27] | > 10000 nM | 4.3 nM
COCc1cc(F)ccc1C(C)N1C[C@H](C)N(c2cc(=O)n(C)c3cn(CC#N)nc23)C[C@H]1C (stereo partly drawn) [Compound A29, 2-(7-((2S,5R)-4-(1-(4-fluoro-2-(methoxymethyl)phenyl)ethyl)-2,5-dimethylpiperazin-1-yl)-4-methyl-5-oxo-4,5-dihydro-2H-pyrazolo[4,3-b]pyridin-2-yl)acetonitrile] | 110 nM | 23000 nM
COCc1cc(C(C)N2C[C@H](C)N(c3cc(=O)n(C)c4cn(CC#N)nc34)C[C@H]2C)ccc1F (some centres unmarked) [Compound A30] | 110 nM | 5100 nM
COCc1ccc(C(C)N2C[C@H](C)N(c3cc(=O)n(C)c4cn(CC#N)nc34)C[C@H]2C)cc1 (some centres unmarked) [Compound A31] | 8100 nM | 1200 nM
COc1cc(F)c(C(C)N2C[C@H](C)N(c3cc(=O)n(C)c4cn(CC#N)nc34)C[C@H]2C)c(F)c1 (some centres unmarked) [Compound A32] | 230 nM | 1200 nM
CC(c1ccc(F)cn1)N1C[C@H](C)N(c2cc(=O)n(C)c3cn(CC#N)nc23)C[C@H]1C (some centres unmarked) [Compound A33] | > 10000 nM | 160 nM
CC(c1ccc2ncnn2c1)N1C[C@H](C)N(c2cc(=O)n(C)c3cn(CC#N)nc23)C[C@H]1C (some centres unmarked) [Compound A34] | 5800 nM | 8300 nM
COc1cc(F)c(C(C)N2C[C@H](C)N(c3cc(=O)n(C)c4cn(CC#N)nc34)C[C@H]2C)cc1F (some centres unmarked) [Compound A35] | 1200 nM | 870 nM
CCC(c1ccc(C2CC2)cc1)N1C[C@H](C)N(c2cc(=O)n(C)c3cn(CC#N)nc23)C[C@H]1C (some centres unmarked) [Compound A36] | 970 nM | 550 nM
CC(c1ccccc1)N1C[C@H](C)N(c2cc(=O)n(C)c3cn(CC#N)nc23)C[C@H]1C (some centres unmarked) [Compound A37] | 5400 nM | 140 nM
COc1ccc(C(C)N2C[C@H](C)N(c3cc(=O)n(C)c4cn(CC#N)nc34)C[C@H]2C)cc1 (some centres unmarked) [Compound A38] | 610 nM | 899 nM

SMILES | IC50 [1] | IC50 [2]
CC(c1ccc2cccnc2c1)N1C[C@H](C)N(c2cc(=O)n(C)c3cn(CC#N)nc23)C[C@H]1C (some centres unmarked) [Compound A40] | 270 nM | 2300 nM
Cc1nc2cc(C(C)N3C[C@H](C)N(c4cc(=O)n(C)c5cn(CC#N)nc45)C[C@H]3C)ccc2o1 (some centres unmarked) [Compound A41] | 1000 nM | > 10000 nM
Cc1nc2cccc(C(C)N3C[C@H](C)N(c4cc(=O)n(C)c5cn(CC#N)nc45)C[C@H]3C)c2o1 (some centres unmarked) [Compound A42] | 3390 nM | > 10000 nM
CC(c1ccc2c(c1)OCCO2)N1C[C@H](C)N(c2cc(=O)n(C)c3cn(CC#N)nc23)C[C@H]1C (some centres unmarked) [Compound A43] | 65 nM | 2900 nM
C[C@@H]1CN(c2cc(=O)n(C)c3cn(CC#N)nc23)[C@@H](C)CN1Cc1ccc2nccnc2c1 [Compound A44] | 610 nM | 8100 nM
Cc1nc2c(C(C)N3C[C@H](C)N(c4cc(=O)n(C)c5cn(CC#N)nc45)C[C@H]3C)cccc2o1 (some centres unmarked) [Compound A45] | 1420 nM | > 10000 nM
C[C@H]1CN([C@@H](C)c2ccc3c(c2)OC(C)(C)CO3)[C@@H](C)CN1c1cc(=O)n(C)c2cn(CC#N)nc12 [Compound A46a] | > 10000 nM | > 10000 nM
C[C@@H]1CN(c2cc(=O)n(C)c3cn(CC#N)nc23)[C@@H](C)CN1[C@@H](C)c1ccc2c(c1)OC(C)(C)CO2 [Compound A46b] | 21 nM | 2570 nM
CC[C@H]1CN(C(C)c2ccc3nccnc3c2)[C@H](CC)CN1c1cc(=O)n(CC)c2cn(CC#N)nc12 (stereo partly drawn) [Compound A47, 2-(7-((2S,5R)-2,5-diethyl-4-(1-(quinoxalin-6-yl)ethyl)piperazin-1-yl)-4-ethyl-5-oxo-4,5-dihydro-2H-pyrazolo[4,3-b]pyridin-2-yl)acetonitrile] | 9.3 nM | 4200 nM
CC[C@H]1CN(C(C)c2ccc3cnccc3c2)[C@H](CC)CN1c1cc(=O)n(C)c2cn(CC#N)nc12 (some centres unmarked) [Compound A48] | 73 nM | 75 nM
CC[C@H]1CN(C(C)c2ccn3ncnc3c2)[C@H](CC)CN1c1cc(=O)n(C)c2cn(CC#N)nc12 (some centres unmarked) [Compound A49] | 200 nM | 130 nM
CC[C@H]1CN(C(C)c2ccc3ccccc3c2)[C@H](CC)CN1c1cc(=O)n(C)c2cn(CC#N)nc12 (some centres unmarked) [Compound A50] | 720 nM | 790 nM
[2H]C([2H])([2H])n1c(=O)cc(N2C[C@@H](CC)N(C(C)c3ccc4nccnc4c3)C[C@@H]2CC)c2nn(CC#N)cc21 (some centres unmarked) [Compound A51] | 7.8 nM | 347 nM
CC[C@H]1CN(C(C)c2nc3ccccc3s2)[C@H](CC)CN1c1cc(=O)n(C)c2cn(CC#N)nc12 (stereo partly drawn) [Compound A52, 2-(7-((2S,5R)-4-(1-(benzo[d]thiazol-2-yl)ethyl)-2,5-diethylpiperazin-1-yl)-4-methyl-5-oxo-4,5-dihydro-2H-pyrazolo[4,3-b]pyridin-2-yl)acetonitrile] | 72 nM | 31 nM
CC[C@H]1CN(C(c2ccc(F)cc2)c2ccc(F)cc2OC)[C@H](CC)CN1c1cc(=O)n(C)c2cn(CC#N)nc12 (some centres unmarked) [Compound A53] | 7.8 nM | 1200 nM
CC[C@H]1CN(C(C)c2cnc3ccccc3n2)[C@H](CC)CN1c1cc(=O)n(C)c2cn(CC#N)nc12 (some centres unmarked) [Compound A55] | 9 nM | 22 nM
CC[C@H]1CN(C(C)c2cnc3ccccc3c2)[C@H](CC)CN1c1cc(=O)n(C)c2cn(CC#N)nc12 (some centres unmarked) [Compound A56] | 27 nM | 560 nM
CC[C@H]1CN(C(C)c2ccc3ccccc3n2)[C@H](CC)CN1c1cc(=O)n(C)c2cn(CC#N)nc12 (some centres unmarked) [Compound A57] | 50 nM | 114 nM
CC[C@H]1CN(C(C)c2cc3ccccc3cn2)[C@H](CC)CN1c1cc(=O)n(C)c2cn(CC#N)nc12 (some centres unmarked) [Compound A58] | 2.8 nM | 7.3 nM
CC[C@H]1CN(C(C)c2ccc3ncccc3c2)[C@H](CC)CN1c1cc(=O)n(C)c2cn(CC#N)nc12 (some centres unmarked) [Compound A60] | 17 nM | 125 nM
